Results on two compounds are retold here after patent publication EP0333005A1, “Light-sensitive dialkoxybenzenediazonium compound, method for its preparation and its use” (priority 1988, dated 1989).

This series can be described thus: Solubility in isopropanol/formic acid. It counts as physicochemical. Conditions: Isopropanol/Ameisensäure (9:1), 20 °C. As for the experimental part:
So beträgt die Löslichkeit in der Form des 2,5-Diethoxy-4-thio(4′-methylphenyl)benzoldiazonium-sulfoisophthalats in Isopropanol/Ameisensäure (9:1) bei 20 °C 7,3 g/l, wogegen die entsprechende erfindungsgemäße Verbindung der Formel I sich zu 12,6 g/l bei 20 °C löst. Bei den bekannten Sulfoisophtalaten müssen daher zur besseren Lösung Löslichkeit verleihende Verbindungen zugesetzt werden.

Each structure is given as a SMILES string.

`CCOc1cc(Sc2ccc(C)cc2)c(OCC)cc1[N+]#N` [Beispiel 1, 2,5-Diethoxy-4-thio(4′-methylphenyl)benzoldiazonium-sulfosalicylat]: the Löslichkeit (listed as entsprechende erfindungsgemäße Verbindung der Formel I) is 12,6 g/l.
For `CCOc1cc(Sc2ccc(C)cc2)c(OCC)cc1[N+]#N` [2,5-Diethoxy-4-thio(4′-methylphenyl)benzoldiazonium-sulfoisophthalat, reference compound], the Löslichkeit is given as 7,3 g/l.
